Results from patent publication US7399319B2, “Dyeing composition comprising a dye chosen from styryl and imine dyes and methods for dyeing keratin fibers” (L'Oreal S.A., priority 2005, dated 2008).

Experiment: Shampoo-fastness test on dyed locks
Experimental: A shampoo-fastness test was performed on the locks of hair dyed with dyes 1 and 2 obtained under the conditions described above. The dyed locks were subjected to 20 shampoo washes according to a cycle comprising wetting the locks with water, washing with shampoo, rinsing with water, and then drying.
The degradation of the color after x shampoo washes was estimated according to the following formula:
[formula] [formula] [formula] [formula] [formula] wherein a*ctrl, b*ctrl, and L*ctrl are the values of a*, b*, and L* of the non-dyed lock; a*dyed, b*dyed, and L*dyed are the values of a*, b*, and L* of the dyed lock before shampooing, whereas a*xSh, b*xSh, and L*xSh are the values of a*, b*, and L* of the dyed lock after x shampoo washes.

[1] = permanent-waved lock, after 5 shampoo washes
[2] = permanent-waved lock, after 12 shampoo washes
[3] = permanent-waved lock, after 18 shampoo washes
[4] = permanent-waved lock, after 20 shampoo washes

Row | SMILES | % degradation [1] | % degradation [2] | % degradation [3] | % degradation [4] | % degradation (natural lock, after 5 shampoo washes) | % degradation (natural lock, after 12 shampoo washes) | % degradation (natural lock, after 18 shampoo washes) | % degradation (natural lock, after 20 shampoo washes)
1 | CN(C)c1ccc(C=CC23OCCN2c2ccccc2C3(C)C)cc1 (stereo not drawn) [Dye 1] | 10% | 17% | 18% | 24% | – | – | – | –
2 | CN(C)c1ccc(C=CC=CC23OCCN2c2ccccc2C3(C)C)cc1 (stereo not drawn) [Dye 2] | 6% | 6% | 7% | 11% | 4% | 14% | 18% | 20%
